Reference: PMC8204636 (ACS chemical biology, 2020)

Molecular target: Cdk2 (Homo sapiens, UniProt P24941)
Experiment: p-Cl-ANS fluorescent binding assay
Conditions: for cooperativity with the allosteric ANS site: based on p-Cl-ANS fluorescent binding studies; for effect on the binding (fluorescence) of p-Cl-ANS: orthosteric ligand titrated into Cdk2 with p-Cl-ANS

SMILES | cooperativity with the allosteric ANS site | effect on the binding (fluorescence) of p-Cl-ANS
Nc1ncnc2c1ncn2[C@@H]1O[C@H](COP(=O)(O)OP(=O)(O)NP(=O)(O)O)[C@@H](O)[C@H]1O [AMP-PNP, adenylyl-imidodiphosphate] | only weakly cooperative, if at all | little effect
Nc1ncnc2c1ncn2[C@@H]1O[C@H](COP(=O)(O)OP(=O)(O)OP(=O)(O)O)[C@@H](O)[C@H]1O [ATP] | only weakly cooperative, if at all | little effect
